Assay results reported in patent US11395490B2, “Herbicidal composition” (SYNGENTA CROP PROTECTION, LLC, priority 2005, dated 2022).

Key:
Type in all cases: in vivo
Settings in all cases: 21 days after treatment
Sorghum vulgare (SORVU) = assay: Post-emergence test, Sorghum vulgare
Excerpt: (§1) The herbicidal action to be expected, We, for a given combination of two herbicides can be calculated as follows (see COLBY, S. R. “Calculating synergistic and antagonistic response of herbicide combinations”. Weeds 15, pages 20-22; 1967): We=X+[Y·(100−X)/100] wherein: X=% herbicidal action in the case of treatment with active ingredient (A) using an application rate of p kg per hectare, in comparison with untreated control (=0%). Y=% herbicidal action in the case of treatment with active ingredient (B) using an application rate of q kg per hectare, in comparison with untreated control. We=expected herbicidal action (% herbicidal action in comparison with untreated control) after treatment with active ingredient (A) and active ingredient (B) at a rate of application of p+q kg of active ingredient per hectare. If the action actually observed is greater than the expected value We, there is a synergistic effect. Trial Description, Pre-Emergence Test: Monocotyledonous and dicotyledonous test plants are sown in standard soil in plastics pots. The plants tested were: Maize (ZEAMX), Ipomea purpurea (PHBPU), Euphorbia heterophylla (EPHHL), Panicum millenacearum (PANMI). Immediately after sowing, the test compounds in aqueous suspension are applied by spraying (200 litres of water/ha). (A) was formulated as a SC50, and (B1), (B2) and (B3) were formulated as WP25; 1% adjuvant crop oil concentrate (Agridex) (v/v) was added to all treatments. The compounds were applied alone and in combination as tank mixtures. The rates of application depend on the optimum concentrations determined under field conditions and greenhouse conditions. The test plants are then cultivated in a greenhouse under optimum conditions. Evaluation of the tests is made after 21 days (% action, 100%=plants have died, 0%=no phytotoxic action).
(§2) Trial Description Post-Emergence Test: The test plants are raised in plastics pots under greenhouse conditions as far as the 2- to 3-leaf stage. A standard soil is used as the cultivation substrate. The plants tested were: Maize (ZEAMX), Ipomea purpurea (PHBPU), Sorghum vulgare (SORVU), Euphorbia heterophylla (EPHHL), Panicum millenacearum (PANMI). At the 2- to 3-leaf stage, the herbicides are applied individually and as mixtures to the test plants. The test compounds are applied in the form of an aqueous suspension in 200 litres of water/ha. (A) was formulated as a SC50, and (B1), (B2) and (B3) were formulated as WP25; 1% adjuvant crop oil concentrate (Agridex) (v/v) was added to all treatments. The compounds were applied alone and in combination as tank mixtures. The rates of application depend on the optimum concentrations determined under field conditions and greenhouse conditions. Evaluation of the tests is made after 21 days (% action, 100%=plants have died, 0%=no phytotoxic action).

[1] = test system: Panicum millenacearum (PANMI); assay: Post-emergence test, Panicum millenacearum
Excerpt: as §1, §2

Ipomea purpurea (PHBPU) [2] = assay: Post-emergence test, Ipomea purpurea
Excerpt: as §1, §2

Maize (ZEAMX) [3] = assay: Pre-emergence test, Maize
Excerpt: as §1

Maize (ZEAMX) [4] = assay: Post-emergence test, Maize
Excerpt: as §1, §2

[5] = test system: Euphorbia heterophylla (EPHHL); assay: Pre-emergence test, Euphorbia heterophylla
Excerpt: as §1

[6] = test system: Euphorbia heterophylla (EPHHL); assay: Post-emergence test, Euphorbia heterophylla
Excerpt: as §1, §2

[7] = test system: Panicum millenacearum (PANMI); assay: Pre-emergence test, Panicum millenacearum
Excerpt: as §1

Ipomea purpurea (PHBPU) [8] = assay: Pre-emergence test, Ipomea purpurea
Excerpt: as §1

Structure (SMILES): Cc1c(C(=O)c2cnn(C)c2O)ccc(S(C)(=O)=O)c1C1=NOCC1 [(B3), topramezone]
- Observed plant damage SORVU (Sorghum vulgare (SORVU); rate 5 g/ha): 0%
- Observed plant damage SORVU (Sorghum vulgare (SORVU); rate 10 g/ha): 0%
- Observed plant damage SORVU (Sorghum vulgare (SORVU); rate 20 g/ha): 0%
- Observed plant damage SORVU (Sorghum vulgare (SORVU); rate 40 g/ha): 0%
- Observed plant damage SORVU (Sorghum vulgare (SORVU); rate 80 g/ha): 0%
- Observed plant damage PANMI ([1]; rate 5 g/ha): 0%
- Observed plant damage PANMI ([1]; rate 10 g/ha): 20%
- Observed plant damage PANMI ([1]; rate 20 g/ha): 80%
- Observed plant damage PANMI ([1]; rate 40 g/ha): 90%
- Observed plant damage PANMI ([1]; rate 80 g/ha): 90%
- Observed plant damage PHBPU (Ipomea purpurea (PHBPU) [2]; rate 5 g/ha): 35%
- Observed plant damage PHBPU (Ipomea purpurea (PHBPU) [2]; rate 10 g/ha): 55%
- Observed plant damage PHBPU (Ipomea purpurea (PHBPU) [2]; rate 20 g/ha): 20%
- Observed plant damage PHBPU (Ipomea purpurea (PHBPU) [2]; rate 40 g/ha): 25%
- Observed plant damage PHBPU (Ipomea purpurea (PHBPU) [2]; rate 80 g/ha): 80%
- Observed plant damage ZEAMX (Maize (ZEAMX) [3]; rate 5 g/ha): 0%
- Observed plant damage ZEAMX (Maize (ZEAMX) [3]; rate 10 g/ha): 0%
- Observed plant damage ZEAMX (Maize (ZEAMX) [3]; rate 20 g/ha): 0%
- Observed plant damage ZEAMX (Maize (ZEAMX) [3]; rate 40 g/ha): 0%
- Observed plant damage ZEAMX (Maize (ZEAMX) [3]; rate 80 g/ha): 0%
- Observed plant damage ZEAMX (Maize (ZEAMX) [4]; rate 5 g/ha): 0%
- Observed plant damage ZEAMX (Maize (ZEAMX) [4]; rate 10 g/ha): 0%
- Observed plant damage ZEAMX (Maize (ZEAMX) [4]; rate 20 g/ha): 0%
- Observed plant damage ZEAMX (Maize (ZEAMX) [4]; rate 40 g/ha): 0%
- Observed plant damage ZEAMX (Maize (ZEAMX) [4]; rate 80 g/ha): 20%
- Observed plant damage EPHHL ([5]; rate 5 g/ha): 0%
- Observed plant damage EPHHL ([5]; rate 10 g/ha): 0%
- Observed plant damage EPHHL ([5]; rate 20 g/ha): 0%
- Observed plant damage EPHHL ([5]; rate 40 g/ha): 0%
- Observed plant damage EPHHL ([5]; rate 80 g/ha): 30%
- Observed plant damage EPHHL ([6]; rate 5 g/ha): 0%
- Observed plant damage EPHHL ([6]; rate 10 g/ha): 20%
- Observed plant damage EPHHL ([6]; rate 20 g/ha): 50%
- Observed plant damage EPHHL ([6]; rate 40 g/ha): 65%
- Observed plant damage EPHHL ([6]; rate 80 g/ha): 90%
- Observed plant damage PANMI ([7]; rate 5 g/ha): 0%
- Observed plant damage PANMI ([7]; rate 10 g/ha): 0%
- Observed plant damage PANMI ([7]; rate 20 g/ha): 0%
- Observed plant damage PANMI ([7]; rate 40 g/ha): 0%
- Observed plant damage PANMI ([7]; rate 80 g/ha): 98%
- Observed plant damage PHBPU (Ipomea purpurea (PHBPU) [8]; rate 5 g/ha): 0%
- Observed plant damage PHBPU (Ipomea purpurea (PHBPU) [8]; rate 10 g/ha): 0%
- Observed plant damage PHBPU (Ipomea purpurea (PHBPU) [8]; rate 20 g/ha): 0%
- Observed plant damage PHBPU (Ipomea purpurea (PHBPU) [8]; rate 40 g/ha): 0%
- Observed plant damage PHBPU (Ipomea purpurea (PHBPU) [8]; rate 80 g/ha): 55%
